In ChEMBL document CHEMBL6121019, “Design, synthesis and biological evaluation of bisnoralcohol derivatives as novel IRF4 inhibitors for the treatment of multiple myeloma” (Eur J Med Chem, 2025):
Active and inactive are the calls of the source. The calls are words filed in the database; no cut-off is given here.

Assays:
NCI-H929 [1] = test: Antiproliferative activity against human NCI-H929 cells with siRNA mediated IRF4#2 knockdown at 0.125 to 1 uM measured upto 5 days by MTS assay; assay type: functional, cell-based; settings: dose 0.125-1 µM, time <= 5.0 day
MM.1R [2] = test: Effect on IRF4 expression in human MM1.R cells by Western blot analysis; assay type: functional, cell-based
[3] = Antiproliferative activity against human HAF cells assessed as inhibition of cell viability measured after 72 hrs by MTS assay; assay type: toxicity, cell-based
[4] = AUC (0 to infinity) in ICR mouse plasma at 1.0 mg/kg, iv; assay type: ADME, organism-based
MM.1R [5] = test: Induction of cell cycle arrest in human MM1.R cells assessed as inhibition of cyclin D1 protein expression at 0.1 to 1 uM; assay type: functional, cell-based; settings: dose 0.1-1 µM
[6] = Potency index, ratio of IC50 for lenalidomide to test compound IC50 for antiproliferative activity against human RPMI-8226 cells assessed as inhibition of cell growth measured after 72 hrs by MTS assay; assay type: functional
MM.1R [7] = test: Induction of cell cycle arrest in human MM1.R cells assessed as inhibition of cyclin E1 protein expression at 0.1 to 1 uM; assay type: functional, cell-based; settings: dose 0.1-1 µM
[8] = Antiproliferative activity against human MM1.R cells assessed as inhibition of cell viability measured after 72 hrs by MTS assay; assay type: functional, cell-based; settings: MM.1R
[9] = Potency index, ratio of IC50 for lenalidomide to test compound IC50 for antiproliferative activity against human NCI-H929 cells assessed as inhibition of cell growth measured after 72 hrs by MTS assay; assay type: functional
NCI-H929 [10] = test: Antitumor activity against human NCI-H929 cells xenografted in Balb/C nude mouse model assessed as inhibition of ERK phosphorylation level at 25 mg/kg by Western blot analysis; assay type: functional, organism-based
NCI-H929 [11] = test: Antiproliferative activity against human NCI-H929 cells with siRNA mediated IRF4#1 knockdown at 0.125 to 1 uM measured upto 5 days by MTS assay; assay type: functional, cell-based; settings: dose 0.125-1 µM, time <= 5.0 day
NCI-H929 [12] = test: Antiproliferative activity against human NCI-H929 cells assessed as inhibition of cell viability measured after 72 hrs by MTS assay; assay type: functional, cell-based; settings: NCI-H929, 72 h
[13] = Cmax in ICR mouse plasma at 1.0 mg/kg, iv; assay type: ADME, organism-based
NCI-H929 [14] = test: Inhibition of AKT phosphorylation level in human NCI-H929 cells at 0.1 to 1 uM by Western blot analysis; assay type: functional, cell-based; settings: dose 0.1-1 µM
NCI-H929 [15] = test: Downregulation of CANX expression in human NCI-H929 cells measured after 24 hrs by qRT-PCR analysis; assay type: functional, cell-based; settings: dose 0.125-1 µM
NCI-H929 [16] = test: Effect on IRF4 expression in human NCI-H929 cells with siRNA mediated IRF4 knockdown by Western blot analysis; assay type: functional, cell-based
[17] = Toxicity in Balb/C nude mouse assessed as change in body weight at 12.5 to 25 mg/kg administered once daily and measured every three days for 34 days; assay type: organism-based; settings: in vivo, 816 h, dose 12.5-25 mg/kg, time 34 day
NCI-H929 [18] = test: Downregulation of Blimp1 expression in human NCI-H929 cells measured after 24 hrs by qRT-PCR analysis; assay type: functional, cell-based; settings: dose 0.125-1 µM
MM.1R [19] = test: Antiproliferative activity against human MM1.R cells assessed as inhibition of 3D clone forming ability measured after 2 to 3 weeks; assay type: functional, cell-based; settings: dose 0.125-1 µM, time 2-3 weeks
MM.1R [20] = test: Inhibition of AKT phosphorylation level in human MM1.R cells at 0.1 to 1 uM by Western blot analysis; assay type: functional, cell-based; settings: dose 0.1-1 µM
MM.1R [21] = test: Induction of cell cycle arrest in human MM1.R cells assessed as inhibition of CMYC protein expression at 0.1 to 1 uM; assay type: functional, cell-based; settings: dose 0.1-1 µM
HAF = test: Effect on IRF4 expression in human HAF cells by Western blot analysis; assay type: functional, cell-based
MM.1R [22] = test: Downregulation of CCNC expression in human MM1.R cells measured after 24 hrs by qRT-PCR analysis; assay type: functional, cell-based; settings: dose 0.125-1 µM
NCI-H929 [23] = test: Antitumor activity against human NCI-H929 cells xenografted in Balb/C nude mouse model assessed as inhibition of tumor volume measured after 34 days; assay type: functional; settings: dose 12.5-25 mg/kg, time 34.0 day

AUC(0-inf) [4]: 86 ng·h/mL | IC50 (NCI-H929 [12]): 80 nM | Cmax [13]: 174 ng/mL
Compound: COc1ccc(NC(=O)[C@@H](C)[C@H]2CC[C@H]3[C@@H]4C(=O)C=C5C(C)(C)C(=O)C(C#N)=C[C@]5(C)[C@H]4CC[C@]23C)cc1
Activity (NCI-H929 [1]): Active | Activity (MM.1R [2]): Active | IC50 at 72 h [3]: > 100000 nM | Activity (MM.1R [5]): Active | Ratio IC50 [6]: 30 | Activity (MM.1R [7]): Active | IC50 [8]: 110 nM | Ratio IC50 [9]: 30 | Activity (NCI-H929 [10]): Active | Activity (NCI-H929 [11]): Active | inhibition (NCI-H929 [14]): Active | Activity (NCI-H929 [15]): Active | Activity (NCI-H929 [16]): Active | Activity [17]: Non-toxic | Activity (NCI-H929 [18]): Active | Activity (MM.1R [19]): Dose-dependent-effect | inhibition (MM.1R [20]): Active | Activity (MM.1R [21]): Active | Activity (HAF): inactive | Activity (MM.1R [22]): Active | Activity (NCI-H929 [23]): Active; More Effective Than Lenalidomide
